The text below walks through data of BindingDB's records for doi:10.1016/j.bmc.2012.12.010 (Duquesne University, 2013).

A short description of the series: Inhibition of MDR1 (unknown origin) transfected in human SKOV3 cells assessed as growth inhibition after 48 hrs by SRB assay. For orientation: The SRB assay estimates cell density from bound dye.

Regarding `CCN(c1ccc(OC)cc1)c1nc(N)nc2[nH]c3ccccc3c12`, the half-inhibitory concentration (IC50) (in general, the concentration that gives 50% inhibition) stood at 72 nM.

With `CCOc1ccc(N(C)c2nc(N)nc3[nH]c4ccccc4c23)cc1`, the half-inhibitory concentration (IC50) was 29 nM.
